# Test results reported in publication PMC5221612 (Journal of the American Chemical Society, 2016).
# Like-named read-outs stand apart in the source and are kept apart here.
# Columns and labels:
# GT-3 HCV NS3/4A protease [1] = target: GT-3 HCV NS3/4A protease (Hepatitis C virus genotype 3a, UniProt Q81258); assay: biochemical
# GT-3 HCV NS3/4A protease [2] = assay: biochemical; set-up: species or system Hepatitis C virus genotype 3a; conditions: for fold change (FC) in Ki, GT-3 relative to GT-1: GT-3 Ki / GT-1 Ki; for loss in affinity in GT-3 relative to GT-1: GT-3 vs GT-1
# [3] = system: GT-1a NS3/4A protease with D168Q; format: biochemical, Hepatitis C virus genotype 1a; conditions: GT-1a D168Q vs GT-1 WT protease
# [4] = system: GT-1a NS3/4A protease with R123T/I132L/D168Q (1a3a); assay: Enzyme inhibition assay, chimeric 1a3a NS3/4A protease; format: biochemical, Hepatitis C virus; conditions: 1a3a chimera vs GT-1 WT
# GT-1 HCV NS3/4A protease = conditions: read-out: Ki against GT-1 NS3/4A protease; GT-1a wild type; cited from earlier work
# [5] = system: HCV GT-3 subgenomic replicon; conditions: viral subgenomic replicon models; range over the named PIs; cited from earlier work
# [6] = target: GT-1a NS3/4A protease with D168Q (Hepatitis C virus genotype 1a, UniProt P27958, D1194Q); format: biochemical; conditions: GT-1a D168Q
Structure (SMILES),Ki in GT-3 (in words) (GT-3 HCV NS3/4A protease [1]),"fold change (FC) in Ki, GT-3 relative to GT-1 (GT-3 HCV NS3/4A protease [2])","fold change (loss) in potency, D168Q relative to GT-1 WT [3]","loss in potency, R123T/I132L/D168Q (1a3a) relative to GT-1 WT [4]",Ki (GT-1 HCV NS3/4A protease),loss in activity against GT-3 compared to GT-1 [5],loss in affinity in GT-3 relative to GT-1 (GT-3 HCV NS3/4A protease [2]),Ki (GT-3 HCV NS3/4A protease [1]),"Ki (GT-3 HCV NS3/4A protease [1]; read-out: Ki against GT-3 NS3/4A protease, GT-3a)",inhibition constant against D168Q (in words) [6]
"CC(C)(C)OC(=O)N[C@H]1CCCCC/C=C\[C@@H]2C[C@@]2(C(=O)NS(=O)(=O)C2CC2)NC(=O)[C@@H]2C[C@@H](OC(=O)N3Cc4cccc(F)c4C3)CN2C1=O [DAN, danoprevir]",low to submicromolar,878 fold,30 fold,2–3 orders of magnitude,1 nM,140- to 1500 fold,,,,
"C=C[C@@H]1C[C@]1(NC(=O)[C@@H]1C[C@@H](Oc2ncc(OC)c3ccc(Cl)cc23)CN1C(=O)[C@@H](NC(=O)OC(C)(C)C)C(C)(C)C)C(=O)NS(=O)(=O)C1CC1 [ASV, asunaprevir]",low to submicromolar,975 fold,72 fold,2–3 orders of magnitude,2.7 nM,,,,,
C=C[C@@H]1C[C@]1(NC(=O)[C@@H]1C[C@@H]2CN1C(=O)[C@H](C(C)(C)C)NC(=O)O[C@@H]1C[C@H]1CCCCCc1nc3ccc(OC)cc3nc1O2)C(=O)NS(=O)(=O)C1CC1.O [grazoprevir],,,,2–3 orders of magnitude,0.1 nM,140- to 1500 fold,2–3 orders of magnitude,,,
CCC[C@H](NC(=O)[C@@H]1[C@H]2CCC[C@H]2CN1C(=O)[C@@H](NC(=O)[C@@H](NC(=O)c1cnccn1)C1CCCCC1)C(C)(C)C)C(=O)C(=O)NC1CC1 [telaprevir],,8 fold,1.2 fold,,33 nM,,,266 nM,,
COc1ccc2c(O[C@@H]3C[C@H]4C(=O)N[C@]5(C(=O)NS(=O)(=O)C6CC6)C[C@H]5/C=C\CCCCN(C)C(=O)[C@@H]4C3)cc(-c3nc(C(C)C)cs3)nc2c1C [simeprevir],,,,,,140- to 1500 fold,,,,
CC(C)(C)NC(=O)N[C@H](C(=O)N1C[C@H]2[C@@H]([C@H]1C(=O)NC(CC1CCC1)C(=O)C(N)=O)C2(C)C)C(C)(C)C (stereo partly drawn) [boceprevir],,2.2 fold,0.7 fold,,33 nM,,,71 nM,,
COc1ccc2nc3c(nc2c1)O[C@@H]1C[C@H]2C(=O)N[C@]4(C(=O)NS(=O)(=O)C5(C)CC5)C[C@H]4/C=C/CCCCC[C@H](NC(=O)O[C@@H]4CCC[C@H]4CCCCC3)C(=O)N2C1 [MK-6325],,,4 fold,2–3 orders of magnitude,0.1 nM,,2–3 orders of magnitude,,31 nM,subnanomolar
CC[C@@H]1C[C@]1(NC(=O)[C@@H]1C[C@@H](Oc2cc(-c3csc(NC(C)C)n3)nc3c(Cl)c(OCCN4CCOCC4)ccc23)CN1C(=O)[C@@H](NC(=O)O[C@@H]1C[C@@H]2C[C@@H]2C1)C(C)(C)C)C(=O)O [GS-9451],,,,,,140- to 1500 fold,,,,
"CC[C@@H]1C[C@]1(NC(=O)[C@@H]1C[C@@H]2CN1C(=O)[C@H](C(C)(C)C)NC(=O)OCC(C)(C)CCCCc1cccc3c1CN(C3)C(=O)O2)C(=O)NS(=O)(=O)C1CC1 [VAN, vaniprevir]",low to submicromolar,533 fold,44 fold,2–3 orders of magnitude,0.7 nM,,,,,
